Consider one molecule from patent publication US10166225B2, “Method for treating osteoporosis” (Exelixis, Inc., priority 2011, dated 2019).

For experiment [1] the following is noted: patients with metastatic castration resistant prostate cancer, regardless of prior bisphosphonates; cited from earlier work.
Experiment [2] relates to rat ovariectomy (OVX) model. Nature of the experiment: Short-term effects on body weight, uterine weight and bone turnover markers in the rat ovariectomy (OVX) model. The format is in vivo, rat (Sprague-Dawley). Further details: key to Body weight, change during the first week / Body weight, change during the in-life phase / Relative uterine weight at day 14 / Serum PINP levels, change during the in-life phase / Serum OC levels, change during the in-life phase / Serum CTX levels, change during the in-life phase / Serum TRACP 5b activity, change during the in-life phase: An upwards arrow (↑) indicates a statistically significant increase; a downwards arrow (↓) a statistically significant decrease; One asterisk (*) indicates a statistical significance with a p-value<0.05; two asterisks (**) with a p-value<0.01; three asterisks (***) with a p-value<0.001; NS=Non-significant. To be noted: for Body weight, change during the first week / Body weight, change during the in-life phase / Relative uterine weight at day 14 / Serum CTX levels, change during the in-life phase / Serum OC levels, change during the in-life phase / Serum PINP levels, change during the in-life phase / Serum TRACP 5b activity, change during the in-life phase: OVX rats vs OVX vehicle. The source says: The objective of this study was to investigate short-term effects of Compound 1 on biochemical serum markers of bone metabolism in a prevention study in a rat ovariectomy (OVX) model for postmenopausal osteoporosis. 17β-estradiol (E2) was used as a reference compound. The following five experimental groups were included in the study:
Each group contained eight female rats (Sprague-Dawley) that were three months of age at the beginning of in-life phase of the study. Before the start of the in-life phase, animals were weighed, their blood samples were harvested, and animals were randomized to study groups by stratification according to body weight and serum levels of procollagen type I N-terminal propeptide (PINP). At the beginning of the in-life phase, animals were weighed and operated. Treatment was started one day after the operations and continued once a day for two weeks. Sterile water was used as vehicle in groups 1 and 2. Body weight was determined after one week of treatment and treatment doses were adjusted accordingly. After two weeks of treatment, animals were weighed, their blood samples were harvested, animals were terminated, and their relative uterine weight was determined. For analyzing short-term effects of treatments, levels of four bone metabolism biomarkers were determined in serum samples harvested before the start and at the end of the in-life phase. These biomarkers included PINP as a marker of bone formation, N-terminal mid-fragment of osteocalcin (OC) as a general marker of bone turnover, C terminal cross-linked telopeptides of type I collagen (CTX) as a marker of bone resorption, and tartrate-resistant acid phosphatase isoform 5b (TRACP 5b) as a marker of osteoclast number. Serum levels at day −7 were used as baseline levels and serum levels at day 14 as levels affected by operations and treatments.
Each group contained eight female rats (Sprague-Dawley) that were three months of age at the beginning of in-life phase of the study. Animals were randomized to study groups by stratification according to their body weight and serum levels of procollagen type I N-terminal propeptide (PINP) measured one week before the start of the in-life phase (at day −7). At the beginning of the in-life phase (at day 0), animals were weighed, animals in groups 2-5 were ovariectomized, and animals in group 1 SHAM-operated. Treatment was started one day after the operations and continued once a day for two weeks (up to day 13). Sterile water was used as vehicle in groups 1 and 2. Body weight was determined at the beginning of the in-life phase (at day 0), one week after the start of the inlife phase (at day 7), and at the end of the in-life phase (at day 14). Treatment doses were adjusted according to the latest body weight obtained. After two weeks of treatment (at day 14), animals were weighed, their blood samples were harvested, animals were terminated, and their relative uterine weight was determined. For analyzing short-term effects of treatments, levels of four bone metabolism biomarkers were measured in serum samples harvested before the start of the in-life phase (at day −7) and at the end of the in-life phase (at day 14). These biochemical serum markers included PINP, N-terminal mid-fragment of osteocalcin (OC), C-terminal cross-linked telopeptides of type I collagen (CTX), and tartrate-resistant acid phosphatase isoform 5b (TRACP 5b). Serum levels obtained at day −7 were used as baseline levels and serum levels obtained at day 14 as levels affected by surgical operations and treatments.
Biochemical markers of bone metabolism are useful tools for monitoring osteoporosis therapy and for prediction of fracture risk and long-term changes in bone mineral density (Cremers et al. 2008). […]

Where [3] appears, read: OVX rats, Compound 1 oral dose of 3 mg/kg/d, two weeks.
Where [4] appears, read: OVX rats, Compound 1 oral doses of 1 and 3 mg/kg/d, two weeks.

With `COc1cc2nccc(Oc3ccc(NC(=O)C4(C(=O)Nc5ccc(F)cc5)CC4)cc3)c2cc1OC` [Compound 1, N-(4-{[6,7-bis(methyloxy)quinolin-4-yl]oxy}phenyl)-N′-(4-fluorophenyl)cyclopropane-1,1-dicarboxamide], the “plasma CTx” value in experiment [1] is reported as “decrease”. Besides, in experiment [2] (cabozantinib 1 mg/kg/d p.o.), the “Body weight, change during the first week” value was “↓ *”; the “Body weight, change during the in-life phase” value is recorded as “↓ *”; the “Relative uterine weight at day 14” value was “NS”; the “Serum CTX levels, change during the in-life phase” value is “NS”. In addition, in experiment [2] (cabozantinib 1 mg/kg/d p.o.), the “Serum OC levels, change during the in-life phase” value is listed as “NS”; the “Serum PINP levels, change during the in-life phase” value is reported as “NS”; the “Serum TRACP 5b activity, change during the in-life phase” value was “NS”. In addition, in experiment [2] (cabozantinib 3 mg/kg/d p.o.), the “Body weight, change during the first week” value is “NS”; the “Body weight, change during the in-life phase” value was “NS”; the “Relative uterine weight at day 14” value is given as “NS”; the “Serum CTX levels, change during the in-life phase” value was “NS”. Also, in experiment [2] (cabozantinib 3 mg/kg/d p.o.), the “Serum OC levels, change during the in-life phase” value is “NS”; the “Serum PINP levels, change during the in-life phase” value is “↑ *”; the “Serum TRACP 5b activity, change during the in-life phase” value is given as “↓ *”. Also, the “OVX-induced gain in body weight” value in experiment [2] (OVX rats, Compound 1 oral dose of 1 mg/kg/d, two weeks) is “partially prevented”. Besides, in experiment [2] (setting [3]), the “OVX-induced increase in serum PINP levels” value is listed as “enhanced” and the “OVX-induced reduction in serum TRACP 5b activity” value is recorded as “enhanced”. Further, in experiment [2] (setting [4]), the “OVX-induced increase in serum CTX levels” value is listed as “did not affect”, the “OVX-induced increase in serum OC levels” value is reported as “did not affect” and the “OVX-induced reduction in relative uterine weight” value is on record as “did not affect”.
